± gives the expanded uncertainty stated by the source.
How the values were obtained:
[1] = wn = mass fraction of the nth substance listed; conditions: Pendant drop shape
[2] = molar heat capacity at constant pressure; wn = mass fraction of the nth substance listed; conditions: 101 kPa, Liquid, Small sample (50 mg) DSC

CC[n+]1ccc(C)cc1.O=S(=O)([N-]S(=O)(=O)C(F)(F)F)C(F)(F)F + CCn1cc[n+](C)c1.N#CN=C=[N-]
Conditions	molar heat capacity at constant pressure, w2 = 0 [J/K/mol]	molar heat capacity at constant pressure, w2 = 0.25 [J/K/mol]	molar heat capacity at constant pressure, w2 = 0.5 [J/K/mol]	molar heat capacity at constant pressure, w2 = 0.75 [J/K/mol]	surface tension liquid-gas, w2 = 0 [mN/m]	surface tension liquid-gas, w2 = 0.25 [mN/m]	surface tension liquid-gas, w2 = 0.5 [mN/m]	surface tension liquid-gas, w2 = 0.75 [mN/m]
[1], 298.2 K	–	–	–	–	24.3 ± 0.4	40.8 ± 0.7	45.8 ± 0.7	52 ± 0.8
[1], 303.2 K	–	–	–	–	23.9 ± 0.4	40.3 ± 0.6	45.3 ± 0.7	51.5 ± 0.8
[1], 313.2 K	–	–	–	–	23.1 ± 0.4	39.2 ± 0.6	44.1 ± 0.7	50.3 ± 0.8
[1], 323.2 K	–	–	–	–	22.2 ± 0.4	38 ± 0.6	42.8 ± 0.7	49 ± 0.8
[2], 296.2 K	627 ± 27	504 ± 21	421 ± 18	363 ± 15	–	–	–	–
[2], 300.2 K	634 ± 27	509 ± 22	425 ± 18	366 ± 16	–	–	–	–
[2], 304.2 K	637 ± 27	512 ± 22	427 ± 18	369 ± 16	–	–	–	–
[2], 308.2 K	640 ± 27	514 ± 22	430 ± 18	371 ± 16	–	–	–	–
[2], 312.2 K	644 ± 27	517 ± 22	433 ± 18	374 ± 16	–	–	–	–
[2], 316.2 K	647 ± 27	520 ± 22	436 ± 19	376 ± 16	–	–	–	–
[2], 320.2 K	649 ± 28	522 ± 22	438 ± 19	378 ± 16	–	–	–	–
[2], 324.2 K	652 ± 28	524 ± 22	441 ± 19	381 ± 16	–	–	–	–
[2], 328.2 K	655 ± 28	528 ± 22	444 ± 19	383 ± 16	–	–	–	–
[2], 332.2 K	659 ± 28	532 ± 23	448 ± 19	387 ± 16	–	–	–	–
[2], 336.2 K	665 ± 28	537 ± 23	451 ± 19	390 ± 17	–	–	–	–
[2], 340.2 K	669 ± 28	541 ± 23	455 ± 19	393 ± 17	–	–	–	–
[2], 344.2 K	674 ± 29	546 ± 23	459 ± 19	397 ± 17	–	–	–	–
[2], 348.2 K	679 ± 29	550 ± 23	463 ± 20	400 ± 17	–	–	–	–
[2], 352.2 K	685 ± 29	555 ± 24	467 ± 20	404 ± 17	–	–	–	–
[2], 356.2 K	691 ± 29	560 ± 24	472 ± 20	407 ± 17	–	–	–	–
[2], 360.2 K	697 ± 30	565 ± 24	477 ± 20	411 ± 17	–	–	–	–
[2], 364.2 K	703 ± 30	570 ± 24	481 ± 20	415 ± 18	–	–	–	–
[2], 368.2 K	708 ± 30	576 ± 24	486 ± 21	419 ± 18	–	–	–	–
[2], 372.2 K	715 ± 30	584 ± 25	492 ± 21	424 ± 18	–	–	–	–
